pEC50, pIC50: −log10 of the molar value. Where a name gives a salt, the structure may show the parent alone.
Legend:
[1] = tested on: conscious rats subject to coronary artery occlusion; experiment: Antiarrhythmic efficacy: incidence of cardiac arrhythmias in conscious rats subject to coronary artery occlusion; assay type: in vivo, rat; conditions: score 0-9 per Table 2, 30 min after occlusion
Experimental: Antiarrhythmic efficacy was assessed by investigating the effect of a compound on the incidence of cardiac arrhythmias in conscious rats subject to coronary artery occlusion. Rats weighing 200-300 gms were subjected to preparative surgery and assigned to groups in a random block design. In each case, the animal was anesthetized with halothane during surgical preparation. The left femoral artery was cannulated for measurement of mean arterial blood pressure and withdrawal of blood samples. The left femoral vein was also cannulated for injection of drugs. The thoracic cavity was opened and a polyethylene occluder loosely placed around the left anterior descending coronary artery. The thoracic cavity was then closed. ECG was recorded by insertion of electrodes placed along the anatomical axis of the heart. All cannulae and electrode leads were exteriorized in the mid scapular region. In random and double-blind manner, about 0.5 to 2 hours post-surgery, an infusion of vehicle, or the compound to be tested was given. After 15 minutes infusion, the occluder was pulled so as to produce coronary artery occlusion. ECG, arrhythmias, blood pressure, heart rate and mortality were monitored for 30 minutes after occlusion. Arrhythmias were recorded as ventricular tachycardia (VT) and ventricular fibrillation (VF) and scored according to Curtis, M. J. and Walker, M. J. A., Cardiovasc.
VPB=ventricular premature beats
VT=ventricular tachycardia
VF=ventricular fibrillation
Occlusion is associated with increases in R-wave height and "S-T" segment elevation; and an occluded zone (measured after death by cardiogreen dye perfusion) in the range of 25%-50% of total left-ventricular weight.

cardiac sodium channel [2] = target: T1, cardiac sodium channel (Rattus norvegicus, UniProt P15389); experiment: ECG parameters in anesthetized rats (RSh, PR, QRS; cardiac sodium channel blockade); assay type: in vivo; conditions: i.v. bolus
Experimental: Rats weighing 200-250 gms were used in this example. Animals were anesthetized with 60 mg/kg pentobarbitone i.p. The carotid artery and jugular vein were cannulated for measurement of blood pressure and drug injection, respectively. ECG was recorded by insertion of electrodes placed along the anatomical axis of the heart. All compounds were given as bolus injections.
Various ECG parameters were measured. The most sensitive of these for measuring sodium channel blockade is RSh (J. Pharmacology Methods 27:51-58 (1992)). Table 4 describes the results of the tests as ED25 (micromoles/kg) which are the doses required to produce a 25% increase in the parameter measured (ne=not estimated). The increases in P-R interval, QRS interval and RSh indicate cardiac sodium channel blockade while the increase in Q-T interval indicates ancillary cardiac potassium channel blockade which is the property of a type 1 a antiarrhythmic.

[3] = tested on: cardiac potassium channel; experiment: ECG parameters in anesthetized rats (QT; ancillary cardiac potassium channel blockade); assay type: in vivo, rat; conditions: i.v. bolus, Q-T interval
Experimental: Various ECG parameters were measured. […] The increases in P-R interval, QRS interval and RSh indicate cardiac sodium channel blockade while the increase in Q-T interval indicates ancillary cardiac potassium channel blockade which is the property of a type 1 a antiarrhythmic.

cardiac sodium channel [4] = target: T1, cardiac sodium channel; experiment: Electrical stimulation of left ventricle in rats (iT, VFT; cardiac sodium channel blockade); assay type: in vivo; conditions: infusion rate for 25% increase from control; anesthetized rats
Experimental: Rats were prepared according to the preceding procedure. Two silver stimulating electrodes were inserted through the chest wall and implanted in the left ventricle. Square wave stimulation was used to determine threshold current for capture, ventricular fibrillation threshold current, and effective refractory period (Howard, P. G. and Walker, M. J. A., Proc. West. Pharmacol. Soc. 33:123-127 (1990)). Table 5 contains ED25 values for these indices of cardiac sodium channel blockade, where the ED25 is the infusion rate in micromoles/kg/minute of compound required to elicit a 25% increase from control. The increases in refractoriness indicate ancillary blockade of potassium channels. The threshold current for capture is represented by "iT". The fibrillation threshold current is represented by "VFT". The effective refracting period is represented by "ERP".

potassium channels = experiment: Electrical stimulation of left ventricle in rats (ERP; ancillary blockade of potassium channels); assay type: in vivo, rat; conditions: infusion rate for 25% increase from control; anesthetized rats
From the text: Two silver stimulating electrodes were inserted through the chest wall and implanted in the left ventricle. Square wave stimulation was used to determine threshold current for capture, ventricular fibrillation threshold current, and effective refractory period (Howard, P. G. and Walker, M. J. A., Proc. West. Pharmacol. Soc. 33:123-127 (1990)). […] The threshold current for capture is represented by "iT". The fibrillation threshold current is represented by "VFT". The effective refracting period is represented by "ERP".

cardiac sodium channel [5] = target: T1, cardiac sodium channel; experiment: Whole cell voltage clamp tests, single isolated adult rat cardiac cells; assay type: cell-based; conditions: whole cell voltage clamp, isolated adult rat cardiac cells; read-out: EC50 (concentration required to produce a 50% reduction in sodium current)
Experimental: In order to directly measure cardiac sodium channel blockade, standard whole cell voltage clamp tests were carried out using single isolated adult rat cardiac cells. Results in the form of EC50 values, which are micromolar concentrations required to produce a 50% reduction in sodium current, are presented in Table 6.

phrenic nerve diaphragm = experiment: Nerve conduction blockade in vitro, phrenic nerve diaphragm; conditions: Rattus norvegicus; phrenic nerve diaphragm, in vitro; read-out: concentration at which the twitch response from electrical stimulation is reduced to 50% of control value
Experimental: In order to establish the potency of the compounds to block nerve conduction, two in vitro assays were used. The first was the phrenic nerve diaphragm of the rat. […] Nerve blockade in these preparations is indicative of local anesthetic activity. Compounds were administered to the bath solution in increasing concentrations while the preparations were being stimulated with regular electrical impulses.

[6] = tested on: hypogastric nerve vas deferens; experiment: Nerve conduction blockade in vitro, hypogastric nerve vas deferens; conditions: hypogastric nerve vas deferens, in vitro; read-out: concentration at which the twitch response from electrical stimulation is reduced to 50% of control value
Experimental: In order to establish the potency of the compounds to block nerve conduction, two in vitro assays were used. The first was the phrenic nerve diaphragm of the rat. The second was the hypogastric nerve vas deferens. Nerve blockade in these preparations is indicative of local anesthetic activity. Compounds were administered to the bath solution in increasing concentrations while the preparations were being stimulated with regular electrical impulses.

[7] = tested on: central nervous system of the rat; experiment: Opioid-like effects during in vivo tests
From the text: This provides evidence that some of the compounds may have analgesic activity through activation of opioid receptors. Examination of members of this series of compounds by analgesic assays and binding studies show the presence of opioid binding and activity.

T1 sequence (P15389 whole entry): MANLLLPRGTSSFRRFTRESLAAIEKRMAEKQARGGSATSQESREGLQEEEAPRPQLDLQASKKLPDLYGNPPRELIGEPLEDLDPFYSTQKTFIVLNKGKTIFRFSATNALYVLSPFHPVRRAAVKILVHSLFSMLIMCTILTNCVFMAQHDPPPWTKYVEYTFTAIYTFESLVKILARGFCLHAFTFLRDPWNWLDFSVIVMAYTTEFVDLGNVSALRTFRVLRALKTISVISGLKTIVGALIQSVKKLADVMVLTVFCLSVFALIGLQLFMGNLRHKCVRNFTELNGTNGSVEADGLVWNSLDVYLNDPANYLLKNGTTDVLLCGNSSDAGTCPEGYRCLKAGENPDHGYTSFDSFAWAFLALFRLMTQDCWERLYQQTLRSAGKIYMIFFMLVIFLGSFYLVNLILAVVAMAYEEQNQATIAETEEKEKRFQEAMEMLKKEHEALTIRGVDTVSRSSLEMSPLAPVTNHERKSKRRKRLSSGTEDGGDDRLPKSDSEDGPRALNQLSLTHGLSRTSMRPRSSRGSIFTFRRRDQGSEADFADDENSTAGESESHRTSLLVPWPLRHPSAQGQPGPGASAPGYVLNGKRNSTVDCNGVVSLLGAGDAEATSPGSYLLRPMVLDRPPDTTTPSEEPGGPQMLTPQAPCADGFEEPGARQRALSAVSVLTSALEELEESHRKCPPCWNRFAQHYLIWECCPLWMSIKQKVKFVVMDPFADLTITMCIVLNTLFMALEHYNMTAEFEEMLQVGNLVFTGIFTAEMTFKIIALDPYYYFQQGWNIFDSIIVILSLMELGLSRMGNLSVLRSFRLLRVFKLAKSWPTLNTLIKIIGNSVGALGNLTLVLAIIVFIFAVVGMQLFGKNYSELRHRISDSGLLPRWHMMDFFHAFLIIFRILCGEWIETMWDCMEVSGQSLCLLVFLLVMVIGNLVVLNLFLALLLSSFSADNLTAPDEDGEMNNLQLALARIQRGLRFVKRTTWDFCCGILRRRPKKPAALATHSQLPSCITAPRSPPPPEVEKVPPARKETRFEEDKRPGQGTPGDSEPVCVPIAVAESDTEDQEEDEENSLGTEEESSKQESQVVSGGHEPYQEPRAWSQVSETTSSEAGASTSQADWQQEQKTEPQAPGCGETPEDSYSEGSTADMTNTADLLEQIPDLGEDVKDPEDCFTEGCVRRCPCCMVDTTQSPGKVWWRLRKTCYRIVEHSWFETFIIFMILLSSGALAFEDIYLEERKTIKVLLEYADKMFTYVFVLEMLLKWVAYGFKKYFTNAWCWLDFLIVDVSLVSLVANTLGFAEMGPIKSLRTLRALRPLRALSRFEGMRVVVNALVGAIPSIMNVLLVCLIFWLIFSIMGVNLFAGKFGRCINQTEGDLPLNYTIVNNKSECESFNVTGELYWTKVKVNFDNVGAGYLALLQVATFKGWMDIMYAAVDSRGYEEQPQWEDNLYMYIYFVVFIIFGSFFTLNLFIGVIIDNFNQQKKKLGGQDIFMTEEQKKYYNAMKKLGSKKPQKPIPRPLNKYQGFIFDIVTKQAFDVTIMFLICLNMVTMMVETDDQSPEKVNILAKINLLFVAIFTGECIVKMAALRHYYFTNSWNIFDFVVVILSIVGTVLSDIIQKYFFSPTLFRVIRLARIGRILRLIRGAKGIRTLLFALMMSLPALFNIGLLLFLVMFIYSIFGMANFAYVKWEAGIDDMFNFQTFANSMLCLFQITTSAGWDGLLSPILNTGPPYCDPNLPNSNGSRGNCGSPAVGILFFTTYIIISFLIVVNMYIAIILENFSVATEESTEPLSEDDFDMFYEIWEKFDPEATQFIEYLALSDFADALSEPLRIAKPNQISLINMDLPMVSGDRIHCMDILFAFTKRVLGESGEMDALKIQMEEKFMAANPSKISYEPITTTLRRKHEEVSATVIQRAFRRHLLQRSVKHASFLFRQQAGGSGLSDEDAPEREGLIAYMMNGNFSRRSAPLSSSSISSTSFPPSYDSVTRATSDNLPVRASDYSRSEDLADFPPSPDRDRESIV

SMILES | AS (arrhythmia score) ([1]; dose 5 micromoles/kg/min infusion) | ED25 RSh (dose required to produce a 25% increase) (cardiac sodium channel [2]) | ED25 QT (dose required to produce a 25% increase) [3] | ED25 VFT (fibrillation threshold current) (cardiac sodium channel [4]) | ED25 iT (threshold current for capture) (cardiac sodium channel [4]) | ED25 ERP (effective refractory period) (potassium channels) | pEC50 (cardiac sodium channel [5]) | pIC50 (phrenic nerve diaphragm) | pIC50 [6] | opioid-like effects on the central nervous system [7] | AS (arrhythmia score) ([1]; dose 20 micromoles/kg/min infusion) | ED25 PR (dose required to produce a 25% increase) (cardiac sodium channel [2]; P-R interval)
Cl.O=C(Cc1csc2ccccc12)O[C@@H]1CCCC[C@H]1N1CCOCC1 (racemic) [Compound #6, (±)-trans-[2-(4-morpholinyl)cyclohexyl]benzo[b]thiophene-3-acetate monohydrochloride] | 1.8 | 100 µmol/kg | 79 µmol/kg | 9 µmol/kg/min | 12 µmol/kg/min | 7 µmol/kg/min | 3.82 | 4.52 | 4.00 | induced opioid-like effects on the central nervous system of the rat | – | –
O=C(COc1cccc2ccccc12)O[C@@H]1CCCC[C@H]1N1CCCC1 (relative stereo) [Compound #2, (±)-trans-[2-(1-pyrrolidinyl)cyclohexyl](1-naphthoxy)acetate monohydrochloride] | – | 11 µmol/kg | 53 µmol/kg | 2 µmol/kg/min | 5 µmol/kg/min | 3 µmol/kg/min | 4.30 | 3.92 | 4.60 | – | 4 | 23 µmol/kg

From patent US5637583A, “Aminocyclohexylesters and uses thereof” (University of British Columbia, priority 1994, dated 1997)
